From the supplement of paper PMC11061612

Key:
[1] = test system: Becker (Low Grade Glioma); test: Bliss excess, mean over the matrix (fraction); higher = more synergy
Summary of the method: (§1)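 Cell lines grown in DMEM/F12 or RPMI with 10% FBS were plated in 1536-well plates and held 24 hours at 37°C, 5% CO2 before 72 hours of exposure to two-drug dose matrices, with DMSO typically at 0.2%. CellTiter-Glo 2.0 luminescence gave viability, which was converted to inhibition. Vehicle wells were set to 0 and blank wells to 1. Combination Emax is the second-highest inhibition in the matrix, and Bliss excess is the observed combination effect minus the expected EA + EB − EA·EB, where EA and EB are the single-agent effects.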

CHL-1 (Melanoma) [2] = test: as above
Summary of the method: as §1

[3] = test system: CML-T1 (Chronic Myelogenous Leukemia); test: as above
Summary of the method: as §1

[4] = test system: COLO-684 (Endometrial Carcinoma); test: as above
Summary of the method: as §1

[5] = test system: EB-3 (Burkitt's Lymphoma); test: as above
Summary of the method: as §1

[6] = test system: FLO-1 (Esophageal Adenocarcinoma); test: as above
Summary of the method: as §1

[7] = test system: HCC-44 (Lung Adenocarcinoma); test: as above
Summary of the method: as §1

KYM-1 (Rhabdomyosarcoma) [8] = test: as above
Summary of the method: as §1

[9] = test system: KYSE-70 (Esophageal Squamous Cell Carcinoma); test: as above
Summary of the method: as §1

[10] = test system: LAMA-84 (Chronic Myelogenous Leukemia); test: as above
Summary of the method: as §1

[11] = test system: LOUCY (T-Lymphoblastic Leukemia); test: as above
Summary of the method: as §1

[12] = test system: NCI-H1755 (Lung Adenocarcinoma); test: as above
Summary of the method: as §1

[13] = test system: NCI-H810 (Non-Small Cell Lung Carcinoma); test: as above
Summary of the method: as §1

[14] = test system: NKM-1 (Acute Myeloid Leukemia); test: as above
Summary of the method: as §1

[15] = test system: OV-90 (Ovarian Carcinoma); test: as above
Summary of the method: as §1

[16] = test system: PANC-02-03 (Pancreatic Carcinoma); test: as above
Summary of the method: as §1

[17] = test system: PC-14 (Lung Adenocarcinoma); test: as above
Summary of the method: as §1

[18] = test system: RMG-I (Ovarian Carcinoma); test: as above
Summary of the method: as §1

[19] = test system: SK-MM-2 (Plasma Cell Myeloma); test: as above
Summary of the method: as §1

[20] = test system: SW684 (Other Solid Carcinomas); test: as above
Summary of the method: as §1

[21] = test system: Becker (Low Grade Glioma); test: combination Emax (second highest fraction inhibited in the dose matrix, 72 h); higher = more inhibition; extreme values may be limits of the assay
Summary of the method: as §1

CHL-1 (Melanoma) [22] = test: as above
Summary of the method: as §1

[23] = test system: CML-T1 (Chronic Myelogenous Leukemia); test: as above
Summary of the method: as §1

[24] = test system: COLO-684 (Endometrial Carcinoma); test: as above
Summary of the method: as §1

[25] = test system: EB-3 (Burkitt's Lymphoma); test: as above
Summary of the method: as §1

[26] = test system: FLO-1 (Esophageal Adenocarcinoma); test: as above
Summary of the method: as §1

[27] = test system: HCC-44 (Lung Adenocarcinoma); test: as above
Summary of the method: as §1

KYM-1 (Rhabdomyosarcoma) [28] = test: as above
Summary of the method: as §1

[29] = test system: KYSE-70 (Esophageal Squamous Cell Carcinoma); test: as above
Summary of the method: as §1

[30] = test system: LAMA-84 (Chronic Myelogenous Leukemia); test: as above
Summary of the method: as §1

[31] = test system: LOUCY (T-Lymphoblastic Leukemia); test: as above
Summary of the method: as §1

[32] = test system: NCI-H1755 (Lung Adenocarcinoma); test: as above
Summary of the method: as §1

[33] = test system: NCI-H810 (Non-Small Cell Lung Carcinoma); test: as above
Summary of the method: as §1

[34] = test system: NKM-1 (Acute Myeloid Leukemia); test: as above
Summary of the method: as §1

[35] = test system: OV-90 (Ovarian Carcinoma); test: as above
Summary of the method: as §1

[36] = test system: PANC-02-03 (Pancreatic Carcinoma); test: as above
Summary of the method: as §1

[37] = test system: PC-14 (Lung Adenocarcinoma); test: as above
Summary of the method: as §1

[38] = test system: RMG-I (Ovarian Carcinoma); test: as above
Summary of the method: as §1

[39] = test system: SK-MM-2 (Plasma Cell Myeloma); test: as above
Summary of the method: as §1

[40] = test system: SW684 (Other Solid Carcinomas); test: as above
Summary of the method: as §1
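For Bliss excess, mean over the matrix in this document: after 72 h of two-drug dosing.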

Structure (SMILES)	Bliss excess [1]	Bliss excess (CHL-1 (Melanoma) [2])	Bliss excess [3]	Bliss excess [4]	Bliss excess [5]	Bliss excess [6]	Bliss excess [7]	Bliss excess (KYM-1 (Rhabdomyosarcoma) [8])	Bliss excess [9]	Bliss excess [10]	Bliss excess [11]	Bliss excess [12]	Bliss excess [13]	Bliss excess [14]	Bliss excess [15]	Bliss excess [16]	Bliss excess [17]	Bliss excess [18]	Bliss excess [19]	Bliss excess [20]	combination Emax [21]	combination Emax (CHL-1 (Melanoma) [22])	combination Emax [23]	combination Emax [24]	combination Emax [25]	combination Emax [26]	combination Emax [27]	combination Emax (KYM-1 (Rhabdomyosarcoma) [28])	combination Emax [29]	combination Emax [30]	combination Emax [31]	combination Emax [32]	combination Emax [33]	combination Emax [34]	combination Emax [35]	combination Emax [36]	combination Emax [37]	combination Emax [38]	combination Emax [39]	combination Emax [40]
N#Cc1cnc(Nc2cc(NC[C@H]3CNCCO3)c(C(F)(F)F)cn2)cn1 [SRA737] + Nc1ccn([C@@H]2O[C@H](CO)[C@@H](O)C2(F)F)c(=O)n1 [Gemcitabine] (first compound max 10 µM, 7x7, partner max 0.3 µM)	0.0323	0.0859	0.0539	-0.0824	0.125	0.124	0.149	-0.0294	0.0297	0.039	0.127	0.0184	0.112	0.0289	-0.0752	0.0122	0.0155	-0.042	0.112	0.0294	0.747	0.803	1	0.657	0.806	0.908	0.853	1	0.643	0.973	0.96	0.775	0.779	1	0.609	0.595	0.806	0.402	0.708	0.494
C=CCn1c(=O)c2cnc(Nc3ccc(N4CCN(C)CC4)cc3)nc2n1-c1cccc(C(C)(C)O)n1 [AZD1775] + Nc1ccn([C@@H]2O[C@H](CO)[C@@H](O)C2(F)F)c(=O)n1 [Gemcitabine] (first compound max 1 µM, partner max 0.3 µM)	0.0271	0.0089	0.0273	-0.0674	0.0105	0.0955	0.0711	0.0009	-0.002	0.0286	0.108	0.0304	-0.0695	0.0002	-0.0166	0.0035	0.0198	-0.0608	0.0664	-0.0333	0.584	0.725	0.998	0.718	0.811	0.904	0.916	0.999	0.565	0.963	0.995	0.786	0.828	1	0.555	0.588	0.917	0.401	0.623	0.382
Cc1c2c(nn1C)CSCc1cc(n(C)n1)CSc1cc(c3ccccc3c1)OCCCc1c(C(=O)O)n(C)c3c-2c(Cl)ccc13 [AZD5991] + Nc1ccn([C@@H]2O[C@H](CO)[C@@H](O)C2(F)F)c(=O)n1 [Gemcitabine] (first compound max 1 µM, 7x7, partner max 0.3 µM)	-0.033	0.0685	-0.0219	-0.0376	0.0273	-0.0134	-0.0513	0.0209	-0.0423	0.0095	0.131	0.0224	0.0467	-0.0275	-0.0251	-0.053	0.0171	-0.0592	-0.0172	-0.0767	0.567	0.785	0.991	0.573	0.377	0.823	0.598	1	0.141	0.939	0.774	0.435	0.597	1	0.505	0.366	0.692	0.367	0.351	0.253
